Laboratory results taken from PubChem BioAssay AID330 (DTP/NCI, 2004).
Where “and” joins values, the source holds several entries; their conditions need not be identical. Equal entries are not always repeated. Toxic doses and inconclusive results are not listed. Rule for the calls: active = survival T/C of 150% or more; inactive = T/C below 125% in these data.

System: P388 leukemia ip, CD2F1 mice, survival T/C
Experiment: NCI In Vivo Anticancer Drug Screen. Data for tumor model P388 Leukemia (intraperitoneal) in CD2F1 (CDF1) mice
Conditions: endpoint: median survival time, higher = longer survival
Procedure, shortened: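 Mice carrying the transplanted tumor received test compound or vehicle. Survival was recorded in each group, and the value is the treated-group measurement divided by that of the vehicle-treated control group.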

[1] = dose: 100.0 mg/kg/injection, schedule: Q04DX003 (ip), vehicle: saline with Tween-80
[2] = dose: 200.0 mg/kg/injection, schedule: Q04DX003 (ip), vehicle: saline with Tween-80
[3] = dose: 32.0 mg/kg/injection, schedule: Q01DX009 (ip), vehicle: Klucel (hydroxypropylcellulose) (HPC)
[4] = dose: 60.0 mg/kg/injection, schedule: Q01DX005 (ip), vehicle: saline with Tween-80
[5] = dose: 120.0 mg/kg/injection, schedule: Q01DX005 (ip), vehicle: saline with Tween-80
[6] = dose: 240.0 mg/kg/injection, schedule: Q01DX005 (ip), vehicle: saline with Tween-80

Measured: T/C

CCN(CC)CN1C(=O)CC2(C1=O)c1ccccc1-c1ccccc12
inactive: dose: 100.0 mg/kg/injection, schedule: Q01DX001 (ip), vehicle: water 109 % of control | dose: 200.0 mg/kg/injection, schedule: Q01DX001 (ip), vehicle: water 106 % of control | dose: 400.0 mg/kg/injection, schedule: Q01DX001 (ip), vehicle: water 110 % of control

CC(C)C(/C=C/c1ccccc1)=N\NS(=O)(=O)c1ccccc1
inactive: dose: 100.0 mg/kg/injection, schedule: Q01DX001 (ip), vehicle: saline with Tween-80 105 % of control | dose: 200.0 mg/kg/injection, schedule: Q01DX001 (ip), vehicle: saline with Tween-80 98 % of control | dose: 400.0 mg/kg/injection, schedule: Q01DX001 (ip), vehicle: saline with Tween-80 96 % of control

CC(=O)NSCC(NC(=O)OC(C)(C)C)C(=O)O (centres undefined)
inactive: dose: 50.0 mg/kg/injection, schedule: Q01DX005 (ip), vehicle: saline with Tween-80 97 % of control | dose: 100.0 mg/kg/injection, schedule: Q01DX005 (ip), vehicle: saline with Tween-80 102 % of control | dose: 200.0 mg/kg/injection, schedule: Q01DX005 (ip), vehicle: saline with Tween-80 95 % of control

COC(=O)C(Br)CCCC(Br)C(=O)OC (centres undefined)
inactive: dose: 25.0 mg/kg/injection, schedule: Q01DX009 (ip), vehicle: distilled water + Tween-80 97 % of control | dose: 50.0 mg/kg/injection, schedule: Q01DX009 (ip), vehicle: distilled water + Tween-80 106 % of control | dose: 100.0 mg/kg/injection, schedule: Q01DX009 (ip), vehicle: distilled water + Tween-80 103 % of control | dose: 200.0 mg/kg/injection, schedule: Q01DX009 (ip), vehicle: distilled water + Tween-80 104 % of control

COc1ccc(Br)cc1/C=N/N=C/c1cc(Br)ccc1OC
inactive: [1] 90 % of control | [2] 86 % of control | dose: 400.0 mg/kg/injection, schedule: Q04DX003 (ip), vehicle: saline with Tween-80 86 % of control

O=C(Nc1cccc(NC(=O)Nc2cccc(C3=NCCN3)c2)c1)Nc1cccc(C2=NCCN2)c1
inactive: dose: 90.0 mg/kg/injection, schedule: Q01DX010 (ip), vehicle: saline 100 % of control

O=C1c2ccncc2C(=O)N1CCO
inactive: dose: 60.0 mg/kg/injection, schedule: Q01DX005 (ip), vehicle: saline 103 % of control | dose: 120.0 mg/kg/injection, schedule: Q01DX005 (ip), vehicle: saline 104 % of control | dose: 240.0 mg/kg/injection, schedule: Q01DX005 (ip), vehicle: saline 101 % of control

Cc1c[nH]c(=O)[nH]c1=O
inactive: [3] 99 % of control and 107 % of control | dose: 32.0 mg/kg/injection, schedule: Q01DX009 (ip), vehicle: saline with Tween-80 116 % of control | dose: 64.0 mg/kg/injection, schedule: Q01DX009 (ip), vehicle: Klucel (hydroxypropylcellulose) (HPC) 99 % of control and 102 % of control | dose: 64.0 mg/kg/injection, schedule: Q01DX009 (ip), vehicle: saline with Tween-80 106 % of control | dose: 128.0 mg/kg/injection, schedule: Q01DX009 (ip), vehicle: Klucel (hydroxypropylcellulose) (HPC) 100 % of control and 107 % of control | dose: 128.0 mg/kg/injection, schedule: Q01DX009 (ip), vehicle: saline with Tween-80 111 % of control | dose: 170.0 mg/kg/injection, schedule: Q04DX003 (ip), vehicle: saline with Tween-80 100 % of control | dose: 170.0 mg/kg/injection, schedule: Q## X003 (ip), vehicle: saline with Tween-80 100 % of control | dose: 256.0 mg/kg/injection, schedule: Q01DX009 (ip), vehicle: Klucel (hydroxypropylcellulose) (HPC) 100 % of control and 112 % of control | dose: 260.0 mg/kg/injection, schedule: Q04DX003 (ip), vehicle: saline with Tween-80 94 % of control | dose: 260.0 mg/kg/injection, schedule: Q## X003 (ip), vehicle: saline with Tween-80 94 % of control | dose: 390.0 mg/kg/injection, schedule: Q04DX003 (ip), vehicle: saline with Tween-80 95 % of control and 98 % of control | dose: 390.0 mg/kg/injection, schedule: Q## X003 (ip), vehicle: saline with Tween-80 95 % of control and 98 % of control | dose: 512.0 mg/kg/injection, schedule: Q01DX009 (ip), vehicle: Klucel (hydroxypropylcellulose) (HPC) 106 % of control and 93 % of control | dose: 512.0 mg/kg/injection, schedule: Q01DX009 (ip), vehicle: saline with Tween-80 98 % of control | dose: 520.0 mg/kg/injection, schedule: Q04DX003 (ip), vehicle: saline with Tween-80 95 % of control and 98 % of control | dose: 520.0 mg/kg/injection, schedule: Q## X003 (ip), vehicle: saline with Tween-80 95 % of control and 98 % of control

Cn1c(O)c(N=NC(N)=S)c2ccccc21
inactive: [1] 95 % of control | [2] 87 % of control

CC1=C2CC/C(C)=C/CCC3(C)OC3CC/C(C)=C/C2OC1=O (centres undefined)
inactive: dose: 1.25 mg/kg/injection, schedule: Q01DX009 (ip), vehicle: other 118 % of control | dose: 2.0 mg/kg/injection, schedule: Q01DX009 (ip), vehicle: Klucel (hydroxypropylcellulose) (HPC) 91 % of control | dose: 2.5 mg/kg/injection, schedule: Q01DX009 (ip), vehicle: other 105 % of control | dose: 4.0 mg/kg/injection, schedule: Q01DX009 (ip), vehicle: Klucel (hydroxypropylcellulose) (HPC) 89 % of control | dose: 5.0 mg/kg/injection, schedule: Q01DX009 (ip), vehicle: other 112 % of control | dose: 10.0 mg/kg/injection, schedule: Q01DX009 (ip), vehicle: saline with Tween-80 92 % of control | dose: 16.0 mg/kg/injection, schedule: Q01DX009 (ip), vehicle: Klucel (hydroxypropylcellulose) (HPC) 94 % of control | dose: 20.0 mg/kg/injection, schedule: Q01DX009 (ip), vehicle: saline with Tween-80 89 % of control | [3] 94 % of control | dose: 40.0 mg/kg/injection, schedule: Q01DX009 (ip), vehicle: saline with Tween-80 108 % of control

Clc1ccc(C2Oc3ccccc3-c3nc4ncccc4cc32)cc1 (centres undefined)
inactive: dose: 25.0 mg/kg/injection, schedule: Q01DX005 (ip), vehicle: Klucel (hydroxypropylcellulose) (HPC) 86 % of control | dose: 50.0 mg/kg/injection, schedule: Q01DX005 (ip), vehicle: Klucel (hydroxypropylcellulose) (HPC) 86 % of control | dose: 100.0 mg/kg/injection, schedule: Q01DX005 (ip), vehicle: Klucel (hydroxypropylcellulose) (HPC) 88 % of control | dose: 200.0 mg/kg/injection, schedule: Q01DX005 (ip), vehicle: Klucel (hydroxypropylcellulose) (HPC) 91 % of control

O=C1OC(C2OC(=O)C(=O)C2C(=O)c2ccc(Cl)cc2)C(C(=O)c2ccc(Cl)cc2)C1=O (centres undefined)
inactive: dose: 60.0 mg/kg/injection, schedule: Q01DX005 (ip), vehicle: saline + Tween-80 + alcohol 95 % of control | dose: 120.0 mg/kg/injection, schedule: Q01DX005 (ip), vehicle: saline + Tween-80 + alcohol 92 % of control | dose: 240.0 mg/kg/injection, schedule: Q01DX005 (ip), vehicle: saline + Tween-80 + alcohol 94 % of control

CCN(CC)CCNc1ccc(O)c2sc3ccccc3c(=O)c12
inactive: dose: 6.25 mg/kg/injection, schedule: Q01DX009 (ip), vehicle: saline + alcohol 94 % of control | dose: 12.5 mg/kg/injection, schedule: Q01DX009 (ip), vehicle: saline + alcohol 89 % of control | dose: 25.0 mg/kg/injection, schedule: Q01DX009 (ip), vehicle: saline + alcohol 99 % of control | dose: 50.0 mg/kg/injection, schedule: Q01DX009 (ip), vehicle: saline + alcohol 103 % of control

Nc1ccc(S(=O)(=O)NCCSSCCNS(=O)(=O)c2ccc(N)cc2)cc1
inactive: [4] 97 % of control | [5] 100 % of control | [6] 105 % of control

CCOC(=O)C(c1ccccc1)c1cccc(C(C(=O)OCC)c2ccccc2)n1 (centres undefined)
inactive: [4] 93 % of control | [5] 90 % of control | [6] 87 % of control

COc1ccc(C(O)C2c3c(cc4c(c3OC)OCO4)CCN2C)c(CO)c1OC (centres undefined)
inactive: dose: 12.5 mg/kg/injection, schedule: Q01DX001 (ip), vehicle: Klucel (hydroxypropylcellulose) (HPC) 88 % of control | dose: 25.0 mg/kg/injection, schedule: Q01DX001 (ip), vehicle: Klucel (hydroxypropylcellulose) (HPC) 88 % of control | dose: 50.0 mg/kg/injection, schedule: Q01DX001 (ip), vehicle: Klucel (hydroxypropylcellulose) (HPC) 94 % of control
